Experimental data taken from patent publication US20250297036A1, “METHOD FOR CO[…]-DERIVED PEPTIDE-NUCLEIC ACID HYBRID MOLECULES ON BASIS OF IN VITRO SELECTION” (priority 2022, published 2025).

Key:
pseudotype SARS-CoV-2 = type: cell-based
SARS-CoV-2 RBD = SARS-CoV-2 RBD (Severe acute respiratory syndrome coronavirus 2, UniProt P0DTC2)
[1] = target: SARS-CoV-2 spike protein on GFP-reporting pseudotype SARS-CoV-2 (SARS-CoV-2), P0DTC2; experiment: cell-based or functional assay
[2] = target: SARS-CoV-2 RBD, wild type (SARS-CoV-2), P0DTC2

Row | Molecule | infection rate with pseudotype SARS-CoV-2 (percentage of infected cells) (pseudotype SARS-CoV-2) [%] | competition with P05DHu and AM122 antibodies (SARS-CoV-2 RBD) | infection rate with pseudotype SARS-CoV-2 (GFP-expressing hACE2-293T cells) [1] [%] | % inhibition of RBD-hACE2 interaction [2] [%]
1 | R7-02 (GGAAGAGATGGCGACACGCAATCGTGGGTTGGGGATATAATGGTAAGCTGATCCTGATGG; 5' hexynyl group, further chemistry not given here) | 1.9 | insignificant |  | 
2 | LGKGDFR [LGKGDFR peptide] | 12.6 |  |  | 
3 | LGKGDFRK (modifications not checked) [LGKGDFR peptide (hACE2-derived hotspot peptide, not conjugated to DNA)] |  |  | 12.6 | 11.7
